Measurements from patent US10093563B2, “Method for making chelating base product used in water-based systems” (Earth Science Laboratories, priority 2015, dated 2018).

System: Cotton plants (Gossypium hirsutum L.)
Assay: foliar zinc micronutrient delivery to cotton plants
Type: in vivo
Settings: for Carotenoids / Chlorophylls / Electron Transport Rate / Membrane Leakage: cotton leaf
Description: An illustrative example of micronutrient delivery is the delivery of zinc (Zn) complexed to the chelant detailed herein to growing plants via foliar application. In this example, the experiment design was a Randomized Complete Design of 4 treatments of 10 replications for each of five parameters: (1) total chlorophyll by measuring fluorescence, (2) total carotenoids by measuring absorbance following organic solvent extraction, (3) electron transport rate by measuring light absorption and fluorometry, (4) membrane leakage by measuring change in electrolyte concentrations, and (5) leaf tissue concentrations of zinc by digesting samples in nitric acid followed by atomic absorption spectrophotometry. Leaf samples were collected at weekly intervals after squaring. Cotton plants (Gossypium hirsutum L.) were grown in a climate controlled chamber on a 14/10 hour, 30/20° C. diurnal cycle, respectively. Individual plants were grown in 48, 3 liter pots containing nutrient deficient potting soil. Plants received identical treatment for nutrition and growth management until squaring. At squaring, the first round of measurements were made and treatments sprayed via a CO2 backpack sprayer with plants arranged in rows. Sprays were allowed to dry before returning to the climate controlled chamber to minimize cross contamination of treatments due to foliar contact. Plants were then grown for an additional two to three weeks with nutrients being supplied via zinc-free Hoagland's solution without added Zn for treatments: ESL-Zn (base product fluid solution), Zinc Sulfate, and Low Zinc. The elemental composition of Hoagland's solution is as follows: N 210 mg/L, K 235 mg/L, Ca 200 mg/L, P 31 mg/L, S 64 mg/L, Mg 48 mg/L, B 0.5 mg/L, Fe 1 to 5 mg/L, Mn 0.5 mg/L, Zn 0.05 mg/L, Cu 0.02 mg/L, and Mo 0.01 mg/L. The four treatments and descriptions were (1) “Control” (no foliar spray addition of Zn), (2) “Low Zn” (No foliar spray addition and the Zn concentration of the Hoagland's solution was reduced to 0.025 mg/L, (3) “ZnSO4” (Foliar spray equivalent of 1% solution [e.g., 8 lbs. of 36% ZnSO4 in 100 gallons H2O] at 15 gallons/acre, and (4) “ESL-Zn” (Foliar spray equivalent of 1% solution [e.g., 8 lbs. of 36% ZnSO4 in 100 gallons H2O] at 15 gallons/acre).

[1] = week 1 (at squaring, measured before foliar spray)
[2] = week 2, foliar spray equivalent of 1% solution at 15 gallons/acre
[3] = week 3, foliar spray equivalent of 1% solution at 15 gallons/acre

With `O=S(=O)([O-])[O-].[Zn+2]` [ZnSO4, Zinc Sulfate] the Carotenoids [1] was 1.713 μg carotenoids/mg dry weight, the Chlorophylls [1] was 11.88 μg pigments/mg dry weight and the “Electron Transport Rate” value [1] was 71 μmol electrons m^−2 s^−. The “Membrane Leakage” value [1] was 34.68%, the Carotenoids [2] was 2.322 μg carotenoids/mg dry weight and the Chlorophylls [2] was 12.67 μg pigments/mg dry weight. The “Electron Transport Rate” value [2] was 70 μmol electrons m^−2 s^−, the “Membrane Leakage” value [2] was 28.12% and the Carotenoids [3] was 1.559 μg carotenoids/mg dry weight. The Chlorophylls [3] was 10.72 μg pigments/mg dry weight, the “Electron Transport Rate” value [3] was 68 μmol electrons m^−2 s^− and the “Membrane Leakage” value [3] was 27.06%. For the same molecule, the “Zn (leaf tissue concentration)” value [1] was 27.46 ppm or mg/L, the “Zn (leaf tissue concentration)” value [2] was 61.29 ppm or mg/L and the “Zn (leaf tissue concentration)” value [3] was 27.52 ppm or mg/L.
